Measurements reported in Sander's compilation of Henry's law constants (doi:10.1016/j.chroma.2004.12.027).

Experiment: Henry solubility constant Hcp at 298.15 K (mol/(m3 Pa))
Settings: reference: Diaz et al. (2005)

Henry solubility constant Hcp | Structure (SMILES)
0.02 | COc1c(Br)cc(Cl)cc1Br [2,6-dibromo-4-chloro-1-methoxybenzene]
0.0082 | COc1c(Cl)cc(Cl)cc1Br [2-bromo-4,6-dichloro-1-methoxybenzene]
0.011 | COc1c(Cl)ccc(Br)c1Cl [3-bromo-2,6-dichloro-1-methoxybenzene]
0.012 | COc1c(Cl)cc(Br)cc1Cl [4-bromo-2,6-dichloro-1-methoxybenzene]
0.0077 | COc1c(Cl)ccc(Cl)c1Br [6-bromo-2,5-dichloro-1-methoxybenzene]

More lines, now with the values behind:

Structure (SMILES) | Henry solubility constant Hcp
COc1c(Cl)ccc(Cl)c1Cl [1,2,4-trichloro-3-methoxybenzene] | 0.011
COc1c(Br)ccc(Br)c1Br [1,3,4-tribromo-2-methoxybenzene] | 0.0052
COc1c(Br)cc(Br)cc1Br [1,3,5-tribromo-2-methoxybenzene] | 0.019
COc1c(Cl)cc(Cl)cc1Cl [1,3,5-trichloro-2-methoxybenzene] | 0.0044
COc1c(Br)ccc(Cl)c1Br [2,6-dibromo-3-chloro-1-methoxybenzene] | 0.0074
